System: circulating lymphocytes
Test: Assessment of in vivo efficacy: circulating lymphocytes after oral administration
Conditions: 3 h after oral administration of 30 mg/kg, normotensive male Wistar rats, compared to vehicle group; mean±SEM
Protocol: The efficacy of the compounds of Formula (I) is assessed by measuring the circulating lymphocytes after oral administration of 30 mg/kg of a compound of Formula (I) to normotensive male Wistar rats. The animals are housed in climate-controlled conditions with a 12 h-light/dark cycle, and have free access to normal rat chow and drinking water. […] Full blood is subjected to hematology using Advia Hematology system (Bayer Diagnostics, Zürich, Switzerland).
All data are presented as mean±SEM. Statistical analyses are performed by analysis of variance (ANOVA) using Statistica (StatSoft) and the Student-Newman-Keuls procedure for multiple comparisons. The null hypothesis is rejected when p<0.05.

| Structure (SMILES) | Lymphocyte counts [%] |
| --- | --- |
| Cc1sc(C(=O)CCc2ccc(OC[C@@H](O)CO)c(Cl)c2)c2c1[C@H]1[C@@H](C2)C1(C)C [Example 75, 3-[3-Chloro-4-((S)-2,3-dihydroxy-propoxy)-phenyl]-1-((1aS,5aR)-1,1,2-trimethyl-1,1a,5,5a-tetrahydro-3-thia-cyclopropa[a]pentalen-4-yl)-propan-1-one] | −57 ± 5 |
| Cc1cc(CCC(=O)c2sc(C)c3c2C[C@@H]2[C@H]3C2(C)C)ccc1OC[C@@H](O)CO [Example 86, 3-[4-((S)-2,3-Dihydroxy-propoxy)-3-methyl-phenyl]-1-((1aS,5aR)-1,1,2-trimethyl-1,1a,5,5a-tetrahydro-3-thia-cyclopropa[a]pentalen-4-yl)-propan-1-one] | −47 ± 4 |
| COc1cc(OCC(C)O)ccc1CNC(=O)c1sc(C)c2c1C[C@@H]1[C@H]2C1(C)C (mixture of isomers) [Example 24, (1aS,5aR)-1,1,2-trimethyl-1,1a,5,5a-tetrahydro-3-thia-cyclopropa[a]pentalene-4-carboxylic acid 4-((R/S)-2-hydroxy-propoxy)-2-methoxy-benzylamide] | −40 ± 4 |
| COc1cc(OC[C@@H](O)CO)ccc1CNC(=O)c1sc(C)c2c1C[C@@H]1[C@H]2C1(C)C [Example 7, (1aS,5aR)-1,1,2-Trimethyl-1,1a,5,5a-tetrahydro-3-thia-cyclopropa[a]pentalene-4-carboxylic acid 4-((S)-2,3-dihydroxy-propoxy)-2-methoxy-benzylamide] | −46 ± 3 |
| Cc1cc(CCC(=O)c2sc(C)c3c2C[C@@H]2[C@H]3C2(C)C)cc(C)c1OC[C@@H](O)CO [Example 51, 3-[4-((S)-2,3-Dihydroxy-propoxy)-3,5-dimethyl-phenyl]-1-((1aS,5aR)-1,1,2-trimethyl-1,1a,5,5a-tetrahydro-3-thia-cyclopropa[a]pentalen-4-yl)-propan-1-one] | −44 ± 4 |

Biological target: recombinant human S1P1 receptor (Homo sapiens, UniProt P21453)
Sequence (P21453 whole entry): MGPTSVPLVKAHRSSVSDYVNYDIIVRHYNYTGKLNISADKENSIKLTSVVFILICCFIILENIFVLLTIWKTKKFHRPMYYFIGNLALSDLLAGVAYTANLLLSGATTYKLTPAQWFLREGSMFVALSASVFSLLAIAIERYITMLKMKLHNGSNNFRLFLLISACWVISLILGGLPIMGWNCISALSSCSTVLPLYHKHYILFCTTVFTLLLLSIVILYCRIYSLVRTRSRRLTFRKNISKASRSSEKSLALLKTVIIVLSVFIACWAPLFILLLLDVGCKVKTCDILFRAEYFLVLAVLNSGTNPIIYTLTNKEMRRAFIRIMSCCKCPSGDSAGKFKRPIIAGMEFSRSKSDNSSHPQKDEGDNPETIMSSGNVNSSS
Test: GTPγS assay to determine EC50 values
Format: biochemical
Conditions: 35S-GTPγS binding, membrane preparations of CHO cells expressing recombinant human S1P1 receptor
Protocol: The pH was 7.4. Test compounds are dissolved and diluted in 100% DMSO and pre-incubated at room temperature for 30 min in 150 μl of the above assay buffer, in the absence of ^35S-GTPγS. After addition of 50 μl of ^35S-GTPγS, the assay is incubated for 1 h at room temperature. […] Membrane-bound ^35S-GTPγS is measured with a TopCount from Packard Biosciences.
Specific binding is determined by subtracting non-specific binding from maximal binding. Maximal binding is the amount of cpm bound to the Multiscreen plate in the presence of 10 μM of S1P. Non-specific binding is the amount of binding in the absence of an agonist in the assay.

| Structure (SMILES) | EC50 [nM] |
| --- | --- |
| Cc1cc(CNC(=O)c2sc(C)c3c2C[C@@H]2[C@H]3C2(C)C)cc(C)c1OC[C@@H](O)CO [Example 5, (1aS,5aR)-1,1,2-trimethyl-1,1a,5,5a-tetrahydro-3-thia-cyclopropa[a]pentalene-4-carboxylic acid 4-((S)-2,3-dihydroxy-propoxy)-3,5-dimethyl-benzylamide] | 75 |
| COc1ccccc1CCC(=O)c1sc(C)c2c1C[C@@H]1[C@H]2C1(C)C [Example 48, 3-(2-methoxy-phenyl)-1-((1aS,5aR)-1,1,2-trimethyl-1,1a,5,5a-tetrahydro-3-thia-cyclopropa[a]penta-len-4-yl)-propan-1-one] | 16 |
| COc1cc(OCC(C)O)ccc1CNC(=O)c1sc(C)c2c1C[C@@H]1[C@H]2C1(C)C (mixture of isomers) [Example 24, (1aS,5aR)-1,1,2-trimethyl-1,1a,5,5a-tetrahydro-3-thia-cyclopropa[a]pentalene-4-carboxylic acid 4-((R/S)-2-hydroxy-propoxy)-2-methoxy-benzylamide] | 164 |
| COc1cc(OC[C@@H](O)CO)ccc1CNC(=O)c1sc(C)c2c1C[C@@H]1[C@H]2C1(C)C [Example 7, (1aS,5aR)-1,1,2-Trimethyl-1,1a,5,5a-tetrahydro-3-thia-cyclopropa[a]pentalene-4-carboxylic acid 4-((S)-2,3-dihydroxy-propoxy)-2-methoxy-benzylamide] | 183 |
| Cc1cc(C)cc(NCC(=O)c2sc(C)c3c2C[C@@H]2[C@H]3C2(C)C)c1 [Example 157, 2-(3,5-Dimethyl-phenylamino)-1-((1aS,5aR)-1,1,2-trimethyl-1,1a,5,5a-tetrahydro-3-thia-cyclopropa[a]pentalen-4-yl)-ethanone] | 9 |
| COc1cc(OCCF)ccc1CNC(=O)c1sc(C)c2c1C[C@@H]1[C@H]2C1(C)C [Example 36, (1aS,5aR)-1,1,2-Trimethyl-1,1a,5,5a-tetrahydro-3-thia-cyclopropa[a]pentalene-4-carboxylic acid 4-(2-fluoro-ethoxy)-2-methoxy-benzylamide] | 300 |
| CCc1sc(C(=O)CCc2cc(C)c(OCCCO)c(C)c2)c2c1[C@@H]1[C@H](C2)C1(C)C [Example 139, 1-((1aR,5aS)-2-Ethyl-1,1-dimethyl-1,1a,5,5a-tetrahydro-3-thia-cyclopropa[a]pentalen-4-yl)-3-[4-(3-hydroxy-propoxy)-3,5-dimethyl-phenyl]-propan-1-one] | 4 |
| Cc1cc(CCC(=O)c2sc(C)c3c2C[C@@H]2[C@H]3C2(C)C)cc(Cl)c1OCC(C)O (stereo partly drawn) [Example 74, 3-[3-Chloro-4-(2-hydroxy-propoxy)-5-methyl-phenyl]-1-((1aS,5aR)-1,1,2-trimethyl-1,1a,5,5a-tetrahydro-3-thia-cyclopropa[a]pentalen-4-yl)-propan-1-one] | 5 |

More lines, now with the values ahead:

| EC50 [nM] | Structure (SMILES) |
| --- | --- |
| 0.6 | CCc1sc(C(=O)CCc2cc(C)c(OC[C@@H](O)CO)c(C)c2)c2c1[C@@H]1[C@H](C2)C1(C)C [Example 137, 3-[4-((S)-2,3-Dihydroxy-propoxy)-3,5-dimethyl-phenyl]-1-((1aR,5aS)-2-ethyl-1,1-dimethyl-1,1a,5,5a-tetrahydro-3-thia-cyclopropa[a]pentalen-4-yl)-propan-1-one] |
| 2 | COc1cc(OC[C@@H](O)CO)ccc1CCC(=O)c1sc(C)c2c1C[C@@H]1[C@H]2C1(C)C [Example 49, 3-[4-((S)-2,3-Dihydroxy-propoxy)-2-methoxy-phenyl]-1-((1aS,5aR)-1,1,2-trimethyl-1,1a,5,5a-tetrahydro-3-thia-cyclopropa[a]pentalen-4-yl)-propan-1-one] |
| 3 | Cc1sc(C(=O)CCc2ccc(OC[C@@H](O)CO)cc2Cl)c2c1[C@H]1[C@@H](C2)C1(C)C [Example 81, 3-[2-Chloro-4-((S)-2,3-dihydroxy-propoxy)-phenyl]-1-((1aS,5aR)-1,1,2-trimethyl-1,1a,5,5a-tetrahydro-3-thia-cyclopropa[a]pentalen-4-yl)-propan-1-one] |
| 1 | Cc1cc(CCC(=O)c2sc(C)c3c2C[C@@H]2[C@H]3C2(C)C)cc(Cl)c1OC[C@H](O)CO [Example 71, 3-[3-Chloro-4-((R)-2,3-dihydroxy-propoxy)-5-methyl-phenyl]-1-((1aS,5aR)-1,1,2-trimethyl-1,1a,5,5a-tetrahydro-3-thia-cyclopropa[a]pentalen-4-yl)-propan-1-one] |
| 3 | Cc1sc(C(=O)CNc2ccc(CCO)cc2)c2c1[C@H]1[C@@H](C2)C1(C)C [Example 163, 2-[4-(2-Hydroxy-ethyl)-phenylamino]-1-((1aS,5aR)-1,1,2-trimethyl-1,1a,5,5a-tetrahydro-3-thia-cyclopropa[a]pentalen-4-yl)-ethanone] |
